Experimental data taken from patent publication US11802120B2, “Fused cyclic urea derivatives as CRHR2 antagonist” (RaQualia Pharma Inc., priority 2018, dated 2023).

Target: T1, human CRHR2-alpha (Homo sapiens, UniProt Q13324)
T1 sequence (Q13324 1-411): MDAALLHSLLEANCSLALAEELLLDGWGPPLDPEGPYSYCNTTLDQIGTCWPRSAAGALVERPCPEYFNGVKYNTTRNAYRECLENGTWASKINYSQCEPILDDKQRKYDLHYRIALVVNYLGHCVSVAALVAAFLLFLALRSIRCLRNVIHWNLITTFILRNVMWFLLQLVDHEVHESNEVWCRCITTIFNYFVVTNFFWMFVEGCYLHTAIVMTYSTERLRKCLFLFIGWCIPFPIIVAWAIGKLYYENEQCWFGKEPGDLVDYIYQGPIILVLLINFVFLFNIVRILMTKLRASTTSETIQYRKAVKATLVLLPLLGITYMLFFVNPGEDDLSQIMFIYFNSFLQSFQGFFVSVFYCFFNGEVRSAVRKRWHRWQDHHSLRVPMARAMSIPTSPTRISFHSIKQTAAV
Assay: cAMP functional assay for human CRHR2 (LANCE Ultra cAMP, TR-FRET)
Format: cell-based
Conditions: CHO-K1 cells expressing human CRHR2-alpha, agonist human urocortin2 at EC80, cAMP; read-out: IC50 against CRHR2
How it was run: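 IC50 values derive from percent inhibition of EC80 agonist-stimulated cAMP in CHO-K1 transfectants, with 0.5 mM IBMX present; the CRHR2 line was stimulated by human urocortin2 and the CRHR1 line by CRF.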

IC50 [nM] | SMILES
< 300 | Cc1ncc(Cl)cc1C(=O)N[C@H]1CC[C@H](Cn2c(=O)n(-c3cnc4c(c3)nnn4C)c3ccccc32)CC1 [Example 275, 5-chloro-2-methyl-N-((1r,4r)-4-((3-(3-methyl-3H-[1,2,3]triazolo[4,5-b]pyridin-6-yl)-2-oxo-2,3-dihydro-1H-benzo [d]imidazol-1-yl)methyl)cyclohexyl)nicotinamide]
< 300 | Cc1ncc(Cl)cc1C(=O)N[C@H]1CC[C@H](Cn2c(=O)n(-c3ccc4c(c3)nnn4C3COC3)c3ccccc32)CC1 [Example 341, 5-chloro-2-methyl-N-((1r,4r)-4-((3-(1-(oxetan-3-yl)-1H-benzo[d][1,2,3]triazol-5-yl)-2-oxo-2,3-dihydro-1H-benzo[d]imidazol-1-yl)methyl)cyclohexyl)nicotinamide]
< 300 | O=C(N[C@H]1CC[C@H](Cn2c(=O)n(-c3cccc(N4CCNC4=O)n3)c3ccccc32)CC1)c1cc(Cl)cnc1C(F)F [Example 773, 5-chloro-2-(difluoromethyl)-N-((1r,4r)-4-((2-oxo-3-(6-(2-oxoimidazolidin-1-yl)pyridin-2-yl)-2,3-dihydro-1H-benzo [d]imidazol-1-yl)methyl)cyclo-hexyl)nicotinamide]
< 300 | Cc1ncc(Cl)cc1C(=O)N[C@H]1CC[C@H](Cn2c(=O)n(-c3ccc(N4CC(F)C4)nc3)c3ccccc32)CC1 [Example 145, 5-chloro-N-((1r,4r)-4-((3-(6-(3-fluoroazetidin-1-yl)pyridin-3-yl)-2-oxo-2,3-dihydro-1H-benzo[d]imidazol-1-yl)methyl)cyclo-hexyl)-2-methylnicotinamide]
< 300 | Cc1ncc(Cl)cc1C(=O)N[C@H]1CC[C@H](Cn2c(=O)n(-c3cnc4c(cnn4C)c3)c3ccccc32)CC1 [Example 163, 5-chloro-2-methyl-N-((1r,4r)-4-((3-(1-methyl-1H-pyrazolo [3,4-b]pyridin-5-yl)-2-oxo-2,3-dihydro-1H-benzo[d]imidazol-1-yl)methyl)cyclo-hexyl)nicotinamide]
< 300 | Cn1ccc(-c2cc(-n3c(=O)n(C[C@H]4CC[C@H](NC(=O)c5cc(Cl)cnc5C(F)F)CC4)c4ccccc43)ccn2)n1 [Example 702, 5-chloro-2-(difluoromethyl)-N-((1r,4r)-4-((3-(2-(1-methyl-1H-pyrazol-3-yl)pyridin-4-yl)-2-oxo-2,3-dihydro-1H-benzo[d]imidazol-1-yl)methyl)cyclohexyl)nicotinamide]
< 300 | C[C@H](O)COc1ccc(-n2c(=O)n(C[C@H]3CC[C@H](NC(=O)c4cc(Cl)cnc4C(F)F)CC3)c3ccccc32)cn1 [Example 440, 5-chloro-2-(difluoromethyl)-N-((1S,4r)-4-((3-(6-((S)-2-hydroxypropoxy)pyridin-3-yl)-2-oxo-2,3-dihydro-1H-benzo[d]imidazol-1-yl)methyl)cyclohexyl)nicotinamide]
< 300 | O=C(N[C@H]1CC[C@H](Cn2c(=O)n(Cc3cccnc3)c3ccccc32)CC1)c1cc(Cl)cnc1C(F)(F)F [Example 284, 5-chloro-N-((1r,4r)-4-((2-oxo-3-(pyridin-3-ylmethyl)-2,3-dihydro-1H-benzo[d]imidazol-1-yl)methyl)cyclohexyl)-2-(trifluoromethyl)nicotinamide]
< 300 | O=C(Cn1c(=O)n(C[C@H]2CC[C@H](NC(=O)c3cc(Cl)cnc3C(F)(F)F)CC2)c2ccccc21)c1ccccc1 [Example 285, 5-chloro-N-((1r,4r)-4-((2-oxo-3-(2-oxo-2-phenylethyl)-2,3-dihydro-1H-benzo[d]imidazol-1-yl)methyl)cyclohexyl)-2-(trifluoromethyl)nicotinamide]
< 300 | Cc1ncc(Cl)cc1C(=O)N[C@H]1CC[C@H](Cn2c(=O)n(-c3ccc(OC(F)F)nc3)c3ccccc32)CC1 [Example 97, 5-chloro-N-((1r,4r)-4-((3-(6-(difluoromethoxy)pyridin-3-yl)-2-oxo-2,3-dihydro-1H-benzo[d]imidazol-1-yl)methyl)cyclohexyl)-2-methylnicotinamide]
< 300 | Cc1ncc(Cl)cc1C(=O)N[C@H]1CC[C@H](Cn2c(=O)n(-c3ccc(OC4CC4)nc3)c3ccccc32)CC1 [Example 113, 5-chloro-N-(4-((3-(6-cyclopropoxypyridin-3-yl)-2-oxo-2,3-dihydro-1H-benzo [d]imidazol-1-yl)methyl)cyclohexyl)-2-methylnico-tinamide]
< 300 | Cc1ncc(Cl)cc1C(=O)N[C@H]1CC[C@H](Cn2c(=O)n(-c3cnc4c(cnn4CC4CC4)c3)c3ccccc32)CC1 [Example 252, 5-chloro-N-((1r,4r)-4-((3-(1-(cyclopropylmethyl)-1H-pyrazolo[3,4-b]pyridin-5-yl)-2-oxo-2,3-dihydro-1H-benzo [d]imidazol-1-yl)methyl)cyclo-hexyl)-2-methylnicotinamide]
< 300 | C[C@H](O)COc1ccc(-n2c(=O)n(C[C@H]3CC[C@H](NC(=O)c4cc(Cl)cnc4C(F)(F)F)CC3)c3ccccc32)cn1 [Example 467, 5-chloro-N-((1S,4r)-4-((3-(6-((S)-2-hydroxypropoxy)pyridin-3-yl)-2-oxo-2,3-dihydro-1H-benzo[d]imidazol-1-yl)methyl)cyclohexyl)-2-(trifluoromethyl)nicotinamide]
< 300 | O=C(N[C@H]1CC[C@H](Cn2c(=O)n(-c3cccc(-c4cn[nH]c4)c3)c3ccccc32)CC1)c1cc(Cl)cnc1C(F)F [Example 697, N-((1r,4r)-4-((3-(3-(1H-pyrazol-4-yl)phenyl)-2-oxo-2,3-dihydro-1H-benzo[d]imidazol-1-yl)methyl)cyclohexyl)-5-chloro-2-(difluoromethyl)nicotinamide]
< 300 | N#Cc1ccccc1-n1c(=O)n(C[C@H]2CC[C@H](NC(=O)c3cc(Cl)cnc3C(F)(F)F)CC2)c2ccccc21 [Example 291, 5-chloro-N-((1r,4r)-4-((3-(2-cyanophenyl)-2-oxo-2,3-dihydro-1H-benzo[d]imidazol-1-yl)methyl)cyclo-hexyl)-2-(trifluoromethyl) nicotinamide]
< 300 | Cc1ncc(Cl)cc1C(=O)N[C@H]1CC[C@H](Cn2c(=O)n(-c3ccc(OC4COC4)nc3)c3ccccc32)CC1 [Example 140, 5-chloro-2-methyl-N-((1r,4r)-4-((3-(6-(oxetan-3-yloxy)pyridin-3-yl)-2-oxo-2,3-dihydro-1H-benzo[d]imidazol-1-yl)methyl)cyclohexyl)nicotinamide]
< 300 | Cc1ncc(Cl)cc1C(=O)N[C@H]1CC[C@H](Cn2c(=O)n(-c3ccc4c(c3)c(C)nn4CCO)c3ccccc32)CC1 [Example 230, 5-chloro-N-((1r,4r)-4-((3-(1-(2-hydroxyethyl)-3-methyl-1H-indazol-5-yl)-2-oxo-2,3-dihydro-1H-benzo[d]imidazol-1-yl)methyl)cyclohexyl)-2-methylnicotinamide]
< 300 | Cc1cc(-n2c(=O)n(C[C@H]3CC[C@H](NC(=O)c4cc(Cl)cnc4C(F)(F)F)CC3)c3ccccc32)ccn1 [Example 316, 5-chloro-N-((1r,4r)-4-((3-(2-methylpyridin-4-yl)-2-oxo-2,3-dihydro-1H-benzo [d]imidazol-1-yl)methyl)cyclohexyl)-2-(trifluoro-methyl)nicotinamide]
< 300 | O=C(N[C@H]1CC[C@H](Cn2c(=O)n(-c3ccccc3Cl)c3ncccc32)CC1)c1cc(Cl)cnc1C(F)(F)F [Example 288, 5-chloro-N-((1r,4r)-4-((3-(2-chlorophenyl)-2-oxo-2,3-dihydro-1H-imidazo[4,5-b]pyridin-1-yl)methyl)cyclo-hexyl)-2-(trifluoromethyl) nicotinamide]
< 300 | Cc1ncc(Cl)cc1C(=O)N[C@H]1CC[C@H](Cn2c(=O)n(-c3cccc(-c4ccn(C)n4)c3)c3ccccc32)CC1 [Example 651, 5-chloro-2-methyl-N-((1r,4r)-4-((3-(3-(1-methyl-1H-pyrazol-3-yl)phenyl)-2-oxo-2,3-dihydro-1H-benzo [d]imidazol-1-yl)methyl)cyclohexyl)nicotinamide]
< 300 | COCOCCn1nc(C)c2cc(-n3c(=O)n(C[C@H]4CC[C@H](NC(=O)c5cc(Cl)cnc5C)CC4)c4ccccc43)ccc21 [Example 229, 5-chloro-N-((1r,4r)-4-((3-(1-(2-(methoxymethoxy)ethyl)-3-methyl-1H-indazol-5-yl)-2-oxo-2,3-dihydro-1H-benzo[d]imidazol-1-yl)methyl)cyclo-hexyl)-2-methylnicotinamide]
< 300 | Cc1ncc(Cl)cc1C(=O)N[C@H]1CC[C@H](Cn2c(=O)n(-c3cncc(-c4cnn(C)c4)c3)c3ccccc32)CC1 [Example 679, 5-chloro-2-methyl-N-((1r,4r)-4-((3-(5-(1-methyl-1H-pyrazol-4-yl)pyridin-3-yl)-2-oxo-2,3-dihydro-1H-benzo[d]imidazol-1-yl)methyl)cyclohexyl) nicotinamide]
< 300 | CNC(=O)c1ccc(-n2c(=O)n(C[C@H]3CC[C@H](NC(=O)c4cc(Cl)cnc4C(F)F)CC3)c3cc(C)ccc32)cn1 [Example 529, 5-(3-(((1r,4r)-4-(5-chloro-2-(difluoromethyl)nicotinamido)cyclohexyl)methyl)-5-methyl-2-oxo-2,3-dihydro-1H-benzo [d]imidazol-1-yl)-N-methylpicolinamide]
